88 compounds from a melting point compilation (Tetko et al.; mined from patent text by program, amines drawn as free bases though some values may be those of a salt) can be followed below.

What is called melting point is the temperature, or range, at which the solid turns liquid.

Residues, ends and D or L forms follow the SMILES beside them. *: point of attachment. Cbz = O=C(OCc1ccccc1)*; Boc = CC(C)(C)OC(=O)*

Regarding `O=Cc1cc2n(n1)CCOC2`, the melting point is 91 °C.

`COc1cc2c(c3c1OC(C)(C)C3)C(c1cccc(NC(=O)c3ccc(Cl)nc3Cl)c1)=NC(C)(C)C2`: the melting point lay within 130 to 132 °C.

The compound `CCN(CC)c1ccccc1C(=O)O` had a melting point of 122 to 123 °C.

`NNC(=O)c1ccc2c(c1)CCO2` gave a melting point of 148 to 149 °C.

As to `CCOC(=O)CN1CCN(Cc2cnc(-c3cc4cccc(N(C)S(=O)(=O)c5cccs5)c4[nH]3)s2)CC1`, the melting point lay in the range of 167 to 169 °C.

Regarding `CN1CC[C@@H](c2c(O)cc(O)c3c(=O)cc(-c4ccc(C#N)cc4Cl)oc23)[C@@H]1CO`, the melting point was 237 to 239 °C.

The compound `NCCOc1cc(Cl)cc([N+](=O)[O-])c1N` yielded a melting point of 156 to 157 °C.

As for `CCCCOC(=O)c1ccc(NCc2cc(Br)ccc2OCc2ccccc2)nn1`, the melting point fell in the range of 133 to 135 °C.

`Cc1nnc2n1-c1sc(C(C)OC(=O)C=Cc3ccccc3)cc1C(c1ccccc1Cl)=NC2` (stereo not drawn) returned a melting point of 122 to 125 °C.

The compound `CCC(=O)c1cc2c(c(Cl)c1O)OC(C(=O)O)C2` (stereo not drawn) displayed a melting point of 227 to 229 °C.

For `Cn1cc(C(=O)NCc2ccc(Cl)cc2)c(=O)c2cc(CN3CC=C(F)CC3)ccc21`, the melting point lay within 221 to 223 °C.

Regarding `CCOc1ccc(-c2nc3c4ccccc4ccc3n2C)cc1`, the melting point lay within 138 to 139 °C.

`COc1ccc2c(c1)CCC1C2CCC2(C)C(NCCc3cccn3C)CCC12` (stereo not drawn) displayed a melting point of 141 to 143 °C.

Regarding `O=c1[nH]c2ncc(Br)cc2o1`, the melting point lay in the range of 229 to 230 °C.

For `COc1c(C(=O)NN=Cc2ccc(Cl)cc2)[nH]c2ccccc12`, the melting point fell in the range of 249 to 251 °C.

The compound `CCOC(=O)C1=CC(=NO)[C@@H](NC(C)=O)[C@@H]2OC(C)(C)O[C@H]12` came in with a melting point of 106 to 116 °C.

Turning to `CCN(CC)CCOC1=C(c2ccccc2)CN(Cc2ccc(Cl)cc2)C1=O`, the melting point lay in the range of 143 to 145 °C.

Regarding `Cc1ncsc1C(=O)Nc1ccc(-n2nc(C3CC3)cc2C2CC2)cc1`, the melting point fell in the range of 110 to 114 °C.

Compound `CC(C)(C)OC(=O)NCC(=O)N1CCC[C@H]1C(=O)O` displayed a melting point of 140 to 143 °C.

Regarding `CN(C)C(=O)c1ccc(I)cc1`, the melting point lay in the range of 103 to 106 °C.

As to `Cc1cc(-c2cc(C(F)F)n3ncc(C(=O)Nc4cccc(S(=O)(=O)N5CCOCC5)c4)c3n2)ccc1C(F)(F)F`, the melting point was 261 °C.

For the compound `OCc1cc2c3ccccc3n(Cc3ccccc3)c2cn1`, the melting point was 120 to 122 °C.

`COc1ccc(OC(=O)c2c3ccccc3nc3ccccc23)cc1` had a melting point of 202 to 203 °C.

`COc1cccc(N(CC(=O)OC(C)(C)C)C(=O)CN2C(=O)c3ccccc3C2=O)c1` registered a melting point of 148 °C.

The compound `C=CCOc1cc([N+](=O)[O-])ccc1OC` registered a melting point of 93 to 94 °C.

For the compound `COc1ccc2c(c1)C(NC(=O)C(F)(F)F)CC2` (stereo not drawn), the melting point was 128 to 136 °C.

`CC(=O)NC1(c2ccccc2)CCN(CC[C@@H](c2ccc(Cl)c(Cl)c2)[C@@H](O)c2ccnn2-c2ccccc2)CC1` (racemic): the melting point lay in the range of 115 to 118 °C.

Compound `CCCC(=O)c1cnc2c(OCC)nccc2c1OS(C)(=O)=O` displayed a melting point of 115 to 116 °C.

`COCCOc1c(S(C)(=O)=O)ccc(C(=O)O)c1C` had a melting point of 104 to 106 °C.

`Fc1ccc(Cn2c(NC3CCN(CCNc4nc(-c5ccccc5)cs4)CC3)nc3ccccc32)cc1` registered a melting point of 176 °C.

The compound `CCC(CC)Nc1cc(C)nc2c1nnn2-c1c(C)cc(C)cc1C` came in with a melting point of 131 to 133 °C.

`CCOCCCN(C)Cc1ccc(NC(=O)C2=Cc3cc(-c4ccc(C)cc4)ccc3OCC2)cc1`: the melting point lay within 119 to 122 °C.

`CC1=CCC2(C)C(CCC3C4CCC(=O)C4(C)CCC32)C1` (stereo not drawn) displayed a melting point of 124 to 126 °C.

On to `CCC1Cc2cc(OCCCC(=O)O)c(Cl)c(Cl)c2C1=O` (stereo not drawn), for which the melting point was in the range of 146 to 148 °C.

Compound `CC(=O)N[C@@H](C)COc1cc2oc(-c3ccc(OC[C@H]4CC4(F)F)cc3)nc2cn1` displayed a melting point of 205 °C.

Take `CN1CC(CN)c2c[nH]c3cccc(c23)C1=O` (stereo not drawn): the melting point is 85 to 87 °C.

For the compound `CCCCc1ncc(/C=C(\Cc2cccs2)C(=O)O)n1Cc1ccc(C(=O)O)c(C(=O)O)c1`, the melting point was in the range of 204 to 205 °C.

As to `CC(C)(C)NCC(O)c1ccc(O)c(C(O)CO)c1` (stereo not drawn), the melting point lay in the range of 190 to 192 °C.

As for `CN1CCc2c(sc3ncn(CCO)c(=O)c23)C1`, the melting point lay in the range of 163 to 165 °C.

`O=C(O)Cc1ccc(OCCNC(=O)C2Cc3ccccc3N2S(=O)(=O)c2ccc(-c3ccc(F)cc3)cc2)cc1` (stereo not drawn) displayed a melting point of 81 °C.

In turn, `C=Cc1nc(-c2cn(C)c3ccccc23)no1` showed a melting point of 54 to 55 °C.

`COc1ccc(-c2c3c(cc4ccc(OC)cc24)C(=O)NC3)cc1` returned a melting point of 290 to 292 °C.

Regarding `COc1cccc(-c2cc(Cl)ncn2)c1`, the melting point was in the range of 112 to 115 °C.

For the compound `CC(=O)NC(Cc1ccc(C)c(C)c1)C(=O)O` (racemic), the melting point was in the range of 136 to 139 °C.

`CC(=O)OC1CSC(Oc2cc(Br)cnc2F)C(OC(C)=O)C1OC(C)=O` (stereo not drawn) displayed a melting point of 120 to 122 °C.

As to `CSc1ccc(CC2=C(O)CSC2=O)cc1`, the melting point lay in the range of 206 to 208 °C.

Compound `COC(=O)c1cn2c(n1)COc1cc(C)ccc1-2` came in with a melting point of 180 to 181 °C.

The compound `O=C1c2ccccc2C(=O)N1CCCn1c2ccccc2c2nc3ccccc3nc21` returned a melting point of 212 to 214 °C.

`CC(C)CC(NC(=O)OC(C)(C)C)C(O)c1ccccn1` (stereo not drawn) showed a melting point of 83 to 84 °C.

As to `O=C(C1CC1)N1CCCC1Cc1ccc(Cl)cc1` (stereo not drawn), the melting point is 62 to 64 °C.

For `OCc1cccc(C=Cc2cccc(-c3ccsc3)c2)c1`, the melting point lay within 79 to 81 °C.

In the case of `Cc1ccccc1C(=O)N[C@@H]1CCc2cccc(N3CCN(C)CC3)c2C1`, the melting point was in the range of 179 to 180 °C.

As for `COc1ccc2c(c1)CCC1CCNC(=O)C(CC(=O)O)=C21` (stereo not drawn), the melting point fell in the range of 232 to 234 °C.

`O=C(Oc1cc(CBr)ccc1F)c1ccccc1`: the melting point is 180 to 182 °C.

Turning to `CC#CCOc1cc(Oc2cccc(C(C)=O)c2)ncn1`, the melting point was 94 °C.

Regarding `O=C(NCCOc1ccc(CC(Oc2ccc(Cl)cc2)C(=O)O)cc1)c1ccc(-c2ccccn2)cc1` (stereo not drawn), the melting point fell in the range of 155 to 156 °C.

As to `O=C(C=Cc1cccnc1)NCCCCC1CCN(C(=O)N(c2ccccc2)c2ccccc2)CC1`, the melting point fell in the range of 132 to 134 °C.

In turn, `C=CCCc1ccc(C=NN=Cc2ccc(CCC=C)cc2)cc1` showed a melting point of 57 °C.

Regarding `O=C(Nc1ccc(-n2nc(C(F)(F)F)cc2C(F)(F)F)cc1)c1cc(F)c(Cl)cc1F`, the melting point lay in the range of 160 to 162 °C.

The compound `c1cnc(SCc2nc3ccccc3[nH]2)nc1` yielded a melting point of 154 to 155 °C.

Compound `CCN1CCN(c2cc3c(cc2F)c(=O)c(C(=O)O)cn3CC)CC1` had a melting point of 251 to 253 °C.

Consider `O=C(O)COc1cccc2c1Cc1sc(SCc3ccccc3)nc1-2`, for which the melting point lay in the range of 166 to 169 °C.

The compound `CC(C)CNC(=O)Nc1c(C(=O)c2ccccc2)[nH]c2cc(Cl)ccc12` yielded a melting point of 235 to 238 °C.

As for `Cc1cc2c(Oc3cccc(C(F)(F)F)c3)nc(CCC(F)(F)F)nc2s1`, the melting point came out at 85 °C.

Consider `CCOC(=O)C1=CC2(CCC1S(=O)(=O)Nc1ccc(F)cc1Cl)S(=O)(=O)CCS2(=O)=O` (stereo not drawn), for which the melting point was 88 to 90 °C.

As for `CC(C)(C)C(=O)Nc1ccc(C(F)(F)F)cc1`, the melting point lay in the range of 154 to 158 °C.

The compound `CC(C)(C)OC(=O)CN1CCN(CC(=O)OC(C)(C)C)C1=O` returned a melting point of 100 to 102 °C.

Compound `CC(C)CC(NC(=O)OCc1ccccc1)C(=O)NC(CCCCNC(=O)OC(C)(C)C)C(=O)O` (stereo not drawn) (Cbz-Leu-Lys(Boc)-OH; configuration not given here) had a melting point of 125 to 128 °C.

For `COc1ccc(Br)c(C(=O)N2CCN(S(=O)(=O)c3ccc(Br)cc3)CC2)c1`, the melting point turned out to be 180 °C.

In the case of `CC(C)=CCN(CC=C(C)C)Cc1noc(-c2ncn3c2[C@@H]2CCCN2C(=O)c2c(Cl)cccc2-3)n1`, the melting point lay within 137 to 140 °C.

`N#CC1CC2CC2N1C(=O)C(N)C12CC3CC(CC(O)(C3)C1)C2` (stereo not drawn) came in with a melting point of 105 to 108 °C.

Regarding `CSc1nc(N)nn1C`, the melting point lay in the range of 104 to 109 °C.

With `CCC[C@H]1CN(c2c(F)cc3c(=O)c(C(=O)O)cn([C@@H]4C[C@@H]4F)c3c2OC)C[C@H]1N`, the melting point lay within 79 to 83 °C.

`O=C(O)CN(CCN(CC(=O)O)C(Cc1ccccc1)C(=O)O)CCN(CC(=O)O)C(Cc1ccccc1)C(=O)O` (stereo not drawn): the melting point lay in the range of 111 to 115 °C.

For the compound `N#CSc1c(C(F)(F)F)nn(-c2c(Cl)cc(C(F)(F)F)cc2Cl)c1N`, the melting point was in the range of 49 to 50 °C.

In turn, `NCCNc1ncc2ncnc(Nc3ccc(F)c(Cl)c3)c2n1` registered a melting point of 173 to 175 °C.

`CN(C(C(=O)NO)C(C)(C)CN1C(=O)c2ccccc2C1=O)S(=O)(=O)c1ccc(Oc2ccccc2)cc1` (stereo not drawn) yielded a melting point of 189 to 190 °C.

Consider `CC(CSC(=S)c1ccc(F)cc1)C(=O)N1CCCC1C(=O)O` (stereo not drawn), for which the melting point is 114 to 115 °C.

Turning to `O=C(O)c1cc(C(F)(F)F)cc(-c2ccc(Cl)c(C(=O)NCC34CC5CC(CC(C5)C3)C4)c2)n1`, the melting point lay in the range of 220 to 225 °C.

In turn, `CC[C@@]1(O)CC(=O)c2c(OC)ccc(OC)c2C1` registered a melting point of 132 to 134 °C.

In turn, `Cc1cc(-c2c(-c3ccccc3)nc3ccc(N4CCC5(CCCNC5)CC4)nn23)ccn1` had a melting point of 175 to 179 °C.

Take `Cc1cccc(N2CCN(c3ccnc4sc(C(N)=O)c(N)c34)CC2C)c1` (stereo not drawn): the melting point is 215 to 217 °C.

In the case of `Cc1ccc2nc3n(c(=O)c2c1)-c1ccc(F)cc1C3=O`, the melting point lay within 300 to 301 °C.

As to `COc1cc(N2C(=O)c3ccccc3C2=O)c2nccc(C)c2c1Oc1cccc(C(F)(F)F)c1`, the melting point was in the range of 228 to 230 °C.

In turn, `CNC(=S)NS(=O)(=O)c1cc(CCNC(=O)c2cnc3ccccc3c2)ccc1OCCOCC(F)(F)F` came in with a melting point of 115 to 120 °C.

The compound `Cc1ccc(S(=O)(=O)N(C)c2ccc(O)cc2)cc1[N+](=O)[O-]` registered a melting point of 173 to 174 °C.

`N#Cc1snc(Cl)c1Cl` had a melting point of 84.5 to 85 °C.

On to `COC(=O)c1ccc(OC)cc1OC(=S)N(C)C`, for which the melting point was in the range of 117 to 120 °C.
